From PMC5908784, “Extracellular loops 2 and 3 of the calcitonin receptor selectively modify agonist binding and efficacy” (Biochemical Pharmacology, 2018) come the findings set out here.

Common to all, as to assay: Homologous whole cell competition binding
Common to all, as to details: homologous competition of 125I-sCT(8-32), whole cells, mean ± S.E.M., SEM

Experiment [1] has as its target T1, hCTR S292A (Homo sapiens, UniProt P30988, S292A).
T1 construct: expressed in transfected cells
T1 sequence (P30988 25-474 S292A): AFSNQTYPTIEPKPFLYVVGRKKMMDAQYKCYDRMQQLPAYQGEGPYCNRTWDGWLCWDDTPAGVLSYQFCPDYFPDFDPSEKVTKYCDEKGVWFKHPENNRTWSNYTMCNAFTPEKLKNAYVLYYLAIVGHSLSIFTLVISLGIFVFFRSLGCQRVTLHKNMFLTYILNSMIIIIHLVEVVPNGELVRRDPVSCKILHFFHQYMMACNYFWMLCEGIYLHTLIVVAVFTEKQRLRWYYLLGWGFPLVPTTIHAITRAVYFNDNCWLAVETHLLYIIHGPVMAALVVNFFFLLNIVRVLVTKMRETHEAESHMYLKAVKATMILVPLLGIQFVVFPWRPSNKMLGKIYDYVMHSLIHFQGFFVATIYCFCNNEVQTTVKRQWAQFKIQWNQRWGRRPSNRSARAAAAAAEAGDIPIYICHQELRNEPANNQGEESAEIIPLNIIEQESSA
Put shortly:
(§1)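 Homologous competition, intact cells, 4 °C overnight; tracer ^125I-sCT(8-32) 25–100 pM (two concs) vs cold sCT(8-32); NSB 1 μM cold peptide; γ counter; 3-param logistic IC50 → Cheng-Prusoff pKi; Bmax also estimated.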

Experiment [2] has as its target T2, hCTR S364A (Homo sapiens, UniProt P30988, S364A).
T2 construct: c-Myc (N); expressed in transfected cells
T2 sequence (P30988 25-474 S364A): T1 sequence (P30988 25-474 S292A) with A268S, S340A
The method in brief: as §1

Experiment [3] addresses T3, hCTR Y299A (Homo sapiens, UniProt P30988, Y299A).
T3 construct: c-Myc (N); expressed in transfected cells
T3 sequence (P30988 25-474 Y299A): T1 sequence (P30988 25-474 S292A) with A268S, Y275A
The method in brief:
as §1

For experiment [4], the target named is T4, hCTR Y374A (Homo sapiens, UniProt P30988, Y374A).
T4 construct: c-Myc (N); expressed in transfected cells
T4 sequence (P30988 25-474 Y374A): T1 sequence (P30988 25-474 S292A) with A268S, Y350A
Put shortly: as §1

Where a chain is given by its changes, count along the chain named. Where no end group is shown, it is not given here.

On to “VLGKLSQELHKLQTYPRTNTGSGTP-NH2 [sCT(8-32)]”, for which the Ki is 0.0631 nM in experiment [1], 0.191 nM in experiment [2], 0.107 nM in experiment [3] and 0.148 nM in experiment [4].

Usually Ki stands for a measure of affinity in units of concentration, obtained from inhibition or displacement.
